Source: PubChem BioAssay AID292 (DTP/NCI, 2004)
Several values for one entry are separate records, joined by “and”; a condition that tells them apart may be missing. Identical values can stand only once. Inconclusive results and toxic doses are left out.

Tested on: B6C3F1 mice, ip Sarcoma M5076, median survival T/C
Assay: NCI In Vivo Anticancer Drug Screen. Data for tumor model Sarcoma M5076 (intraperitoneal) in B6C3F1 mice
Details: endpoint: median survival time, schedule: Q04DX004 (ip), higher = longer survival
Outline: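 Transplantable tumour in mice; compound-treated vs vehicle-treated groups. Read-out: survival. Value = treated/control ratio.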

[1] = dose: 50.0 mg/kg/injection, vehicle: Klucel (hydroxypropylcellulose) (HPC)
[2] = dose: 100.0 mg/kg/injection, vehicle: Klucel (hydroxypropylcellulose) (HPC)
[3] = dose: 200.0 mg/kg/injection, vehicle: Klucel (hydroxypropylcellulose) (HPC)
[4] = dose: 400.0 mg/kg/injection, vehicle: Klucel (hydroxypropylcellulose) (HPC)
[5] = dose: 50.0 mg/kg/injection, vehicle: saline with Tween-80
[6] = dose: 100.0 mg/kg/injection, vehicle: saline with Tween-80
[7] = dose: 200.0 mg/kg/injection, vehicle: saline with Tween-80
[8] = dose: 2.5 mg/kg/injection, vehicle: Klucel (hydroxypropylcellulose) (HPC)
[9] = dose: 5.0 mg/kg/injection, vehicle: Klucel (hydroxypropylcellulose) (HPC)
[10] = dose: 10.0 mg/kg/injection, vehicle: Klucel (hydroxypropylcellulose) (HPC)
[11] = dose: 20.0 mg/kg/injection, vehicle: Klucel (hydroxypropylcellulose) (HPC)
[12] = dose: 25.0 mg/kg/injection, vehicle: Klucel (hydroxypropylcellulose) (HPC)

`CC(=O)NCCSSCCCCS(=O)O` was tested, and the T/C (dose: 37.5 mg/kg/injection, vehicle: saline) was 99 % of control, the T/C (dose: 75.0 mg/kg/injection, vehicle: saline) was 98 % of control and the T/C (dose: 150.0 mg/kg/injection, vehicle: saline) was 100 % of control. For the same compound, the T/C (dose: 300.0 mg/kg/injection, vehicle: saline) was 97 % of control and the T/C (dose: 600.0 mg/kg/injection, vehicle: saline) was 104 % of control.

`C=CCc1cn(C2CC(O)C(CO)O2)c(=O)[nH]c1=O` (configuration not stated) was tested, and the T/C (dose: 50.0 mg/kg/injection, vehicle: saline) was 99 % of control, the T/C (dose: 100.0 mg/kg/injection, vehicle: saline) was 93 % of control and the T/C (dose: 200.0 mg/kg/injection, vehicle: saline) was 93 % of control. For the same compound, the T/C (dose: 400.0 mg/kg/injection, vehicle: saline) was 101 % of control.

For `COc1cccc(Sc2ccc([N+](=O)[O-])c3no[n+]([O-])c23)c1`, the T/C (dose: 3.75 mg/kg/injection, vehicle: saline with Tween-80) was 105 % of control, the T/C (dose: 7.5 mg/kg/injection, vehicle: saline with Tween-80) was 106 % of control and the T/C (dose: 15.0 mg/kg/injection, vehicle: saline with Tween-80) was 105 % of control. For the same compound, the T/C (dose: 30.0 mg/kg/injection, vehicle: saline with Tween-80) was 101 % of control and the T/C (dose: 60.0 mg/kg/injection, vehicle: saline with Tween-80) was 98 % of control.

For `Cn1c([N+](=O)[O-])cnc1CSc1ccc(C#N)cc1`, the T/C [1] was 96 % of control, the T/C [2] was 93 % of control and the T/C [3] was 102 % of control. The T/C [4] was 94 % of control and the T/C (dose: 800.0 mg/kg/injection, vehicle: Klucel (hydroxypropylcellulose) (HPC)) was 91 % of control.

For `Clc1nc2cc3c(cc2n2cccc12)oc1ccccc13`, the T/C (dose: 25.0 mg/kg/injection, vehicle: saline with Tween-80) was 93 % of control, the T/C [5] was 95 % of control and the T/C [6] was 94 % of control. The T/C [7] was 86 % of control and the T/C (dose: 400.0 mg/kg/injection, vehicle: saline with Tween-80) was 86 % of control.

`COc1ccc(Nc2c3sc4cc(OC)ccc4nc-3c3ccccc3c2=O)cc1` was tested, and the T/C (dose: 37.5 mg/kg/injection, vehicle: saline with Tween-80) was 105 % of control, the T/C (dose: 75.0 mg/kg/injection, vehicle: saline with Tween-80) was 89 % of control and the T/C (dose: 150.0 mg/kg/injection, vehicle: saline with Tween-80) was 86 % of control.

With `COc1cc(N2C(=O)C(=O)C(C(C)=O)C2=O)c(OC)cc1Cl` (configuration not stated) the T/C [1] was 102 % of control, the T/C [2] was 102 % of control and the T/C [3] was 101 % of control. The T/C [4] was 102 % of control.

With `CC(=O)C1C(=O)C(=O)N(Cc2ccccc2)C1=O` (configuration not stated) the T/C (dose: 46.88 mg/kg/injection, vehicle: Klucel (hydroxypropylcellulose) (HPC)) was 98 % of control, the T/C (dose: 93.75 mg/kg/injection, vehicle: Klucel (hydroxypropylcellulose) (HPC)) was 95 % of control and the T/C (dose: 187.5 mg/kg/injection, vehicle: Klucel (hydroxypropylcellulose) (HPC)) was 99 % of control. For the same compound, the T/C (dose: 375.0 mg/kg/injection, vehicle: Klucel (hydroxypropylcellulose) (HPC)) was 98 % of control.

With `N#CC1C(=O)NC(=O)C(C#N)C1C1C(=O)NC2CCCCC21` (configuration not stated) the T/C (dose: 43.75 mg/kg/injection, vehicle: saline with Tween-80) was 93 % of control, the T/C (dose: 87.5 mg/kg/injection, vehicle: saline with Tween-80) was 100 % of control and the T/C (dose: 175.0 mg/kg/injection, vehicle: saline with Tween-80) was 95 % of control. For the same compound, the T/C (dose: 350.0 mg/kg/injection, vehicle: saline with Tween-80) was 95 % of control.

In the case of `COc1ccc([N+](=O)[O-])cc1NC(=O)C1C(=O)C(=O)N(c2cc([N+](=O)[O-])ccc2OC)C1=O` (configuration not stated), the T/C [1] is reported as 100 % of control, the T/C [2] is reported as 107 % of control and the T/C [3] is reported as 100 % of control.

`COc1cc2c(cc1OC)-c1c3c(cc4c1[C@@H](C2)N(C)CC4)OCO3` was tested, and the T/C (dose: 12.5 mg/kg/injection, vehicle: distilled water + Tween-80) was 101 % of control, the T/C (dose: 25.0 mg/kg/injection, vehicle: distilled water + Tween-80) was 100 % of control and the T/C (dose: 50.0 mg/kg/injection, vehicle: distilled water + Tween-80) was 100 % of control. For the same compound, the T/C (dose: 100.0 mg/kg/injection, vehicle: distilled water + Tween-80) was 95 % of control.

`CCCCCCCC1C(=O)OC2CC3C(C)=CC(=O)C(O)C3(C)C3C4(O)OCC23C1C(C)C4O` (configuration not stated) was tested, and the T/C [8] was 109 % of control, the T/C [9] was 108 % of control and the T/C [10] was 109 % of control. The T/C [11] was 106 % of control.

For `CCN(CC)CCN1C(=O)C2C3C=CC(C2C1=O)C1C2C(=O)N(CCN(CC)CC)C(=O)C2C31` (configuration not stated), the T/C (dose: 25.0 mg/kg/injection, vehicle: water) was 95 % of control, the T/C (dose: 50.0 mg/kg/injection, vehicle: water) was 99 % of control and the T/C (dose: 100.0 mg/kg/injection, vehicle: water) was 97 % of control. For the same compound, the T/C (dose: 200.0 mg/kg/injection, vehicle: water) was 99 % of control.

With `COc1cc2c(c(OC)c1OC)-c1cccc(=O)cc1C(NC(C)=O)CC2` (configuration not stated) the T/C (dose: 3.15 mg/kg/injection, vehicle: Klucel (hydroxypropylcellulose) (HPC)) was 98 % of control, the T/C (dose: 6.25 mg/kg/injection, vehicle: Klucel (hydroxypropylcellulose) (HPC)) was 113 % of control and the T/C (dose: 12.5 mg/kg/injection, vehicle: Klucel (hydroxypropylcellulose) (HPC)) was 107 % of control. For the same compound, the T/C [12] was 116 % of control and 117 % of control, the T/C (dose: 36.0 mg/kg/injection, vehicle: Klucel (hydroxypropylcellulose) (HPC)) was 114 % of control and the T/C [1] was 115 % of control. For the same compound, the T/C (dose: 60.0 mg/kg/injection, vehicle: Klucel (hydroxypropylcellulose) (HPC)) was 113 % of control, the T/C [2] was 110 % of control and 121 % of control and the T/C (dose: 166.67 mg/kg/injection, vehicle: Klucel (hydroxypropylcellulose) (HPC)) was 107 % of control. The T/C (dose: 277.78 mg/kg/injection, vehicle: Klucel (hydroxypropylcellulose) (HPC)) was 111 % of control.

For `Cn1c(-c2ccc(Br)cc2)cc2[nH]c(=S)nc(N)c2c1=O`, the T/C [5] was 96 % of control, the T/C [6] was 92 % of control and the T/C [7] was 87 % of control.

For `COC1=C(C)C(=O)C2=C(C1=O)C(CO)N1C(C#N)C3CC4C(C1C2N1CCOC41)N3C` (configuration not stated), the T/C (dose: 0.12 mg/kg/injection, vehicle: acid diluted with saline) was 97 % of control, the T/C (dose: 0.25 mg/kg/injection, vehicle: acid diluted with saline) was 103 % of control and the T/C (dose: 0.5 mg/kg/injection, vehicle: acid diluted with saline) was 100 % of control. For the same compound, the T/C (dose: 1.0 mg/kg/injection, vehicle: acid diluted with saline) was 90 % of control and 93 % of control and the T/C (dose: 2.0 mg/kg/injection, vehicle: acid diluted with saline) was 98 % of control and 109 % of control.

In the case of `O=S(Cl)C(Cl)=C(Cl)Cl` (configuration not stated), the T/C [12] is reported as 86 % of control.

With `O=C1CN2Cc3c(sc4c3CCCC4)N=C2N1` the T/C (dose: 37.5 mg/kg/injection, vehicle: Klucel (hydroxypropylcellulose) (HPC)) was 103 % of control, the T/C (dose: 75.0 mg/kg/injection, vehicle: Klucel (hydroxypropylcellulose) (HPC)) was 104 % of control and the T/C (dose: 150.0 mg/kg/injection, vehicle: Klucel (hydroxypropylcellulose) (HPC)) was 100 % of control. For the same compound, the T/C (dose: 300.0 mg/kg/injection, vehicle: Klucel (hydroxypropylcellulose) (HPC)) was 103 % of control and the T/C (dose: 600.0 mg/kg/injection, vehicle: Klucel (hydroxypropylcellulose) (HPC)) was 100 % of control.

`CCOC(=O)NC1CCc2cc(OC)c(OC)c(OC)c2-c2ccc(OC)c(=O)cc21` (configuration not stated) was tested, and the T/C [8] was 150 % of control, the T/C [9] was 183 % of control and the T/C [10] was 176 % of control. For the same compound, the T/C [11] was 161 % of control and 178 % of control.
